According to ChEMBL document CHEMBL4184253, “Design, synthesis, and structure-activity relationships of new benzofuro[3,2-b]pyridin-7-ols as DNA topoisomerase II inhibitors” (Bioorg Med Chem Lett, 2018):
pIC50: −log10 of the molar value. Counter-ions that a name gives are not always drawn. Calls of active or inactive are those of the source. The rule behind the calls is not given here.

Key:
HeLa = experiment: Antiproliferative activity against human HeLa cells incubated for 72 hrs by CCK8 assay; assay type: functional, cell-based
[1] = target: DNA topoisomerase 2-alpha (Homo sapiens) (UniProt P11388); experiment: Inhibition of human recombinant topoisomerase-2alpha assessed as inhibition of relaxation of supercoiled pBR322 plasmid DNA at 20 uM measured after 1 hr by ethidium bromide staining based agarose gel electrophoresis relative to control etoposide
T47D = experiment: Antiproliferative activity against human T47D cells incubated for 72 hrs by CCK8 assay; assay type: functional, cell-based
[2] = target: DNA topoisomerase 2-alpha (Homo sapiens) (UniProt P11388); experiment: Inhibition of human recombinant topoisomerase-2alpha assessed as inhibition of relaxation of supercoiled pBR322 plasmid DNA at 100 uM measured after 1 hr by ethidium bromide staining based agarose gel electrophoresis relative to control etoposide
[3] = target: T1, DNA topoisomerase 1 (Homo sapiens) (UniProt P11387); experiment: Inhibition of human recombinant topoisomerase-1 assessed as inhibition of relaxation of supercoiled pBR322 plasmid DNA at 100 uM measured after 1 hr by ethidium bromide staining based agarose gel electrophoresis relative to control
T1 sequence (whole entry): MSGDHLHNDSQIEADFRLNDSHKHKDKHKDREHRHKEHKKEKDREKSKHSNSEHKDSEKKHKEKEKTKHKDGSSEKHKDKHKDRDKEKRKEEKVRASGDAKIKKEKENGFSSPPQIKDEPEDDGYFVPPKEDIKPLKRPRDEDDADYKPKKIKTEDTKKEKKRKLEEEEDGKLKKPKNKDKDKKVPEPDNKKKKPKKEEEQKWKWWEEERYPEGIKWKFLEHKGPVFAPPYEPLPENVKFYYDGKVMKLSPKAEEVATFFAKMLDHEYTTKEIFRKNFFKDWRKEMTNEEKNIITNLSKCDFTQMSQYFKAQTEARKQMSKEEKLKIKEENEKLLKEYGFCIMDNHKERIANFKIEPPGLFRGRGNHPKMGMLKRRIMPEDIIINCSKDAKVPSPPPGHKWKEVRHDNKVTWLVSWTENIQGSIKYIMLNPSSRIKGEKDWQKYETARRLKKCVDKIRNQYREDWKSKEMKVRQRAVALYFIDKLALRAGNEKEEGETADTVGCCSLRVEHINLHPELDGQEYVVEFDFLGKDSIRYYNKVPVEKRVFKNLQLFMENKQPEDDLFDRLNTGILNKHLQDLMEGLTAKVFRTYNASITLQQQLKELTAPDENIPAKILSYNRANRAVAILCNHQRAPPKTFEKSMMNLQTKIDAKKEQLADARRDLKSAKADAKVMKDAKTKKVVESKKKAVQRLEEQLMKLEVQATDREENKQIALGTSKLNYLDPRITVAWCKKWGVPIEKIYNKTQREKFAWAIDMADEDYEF

[4] = target: DNA topoisomerase 2-alpha (Homo sapiens) (UniProt P11388); experiment: Inhibition of human recombinant topoisomerase-2alpha assessed as inhibition of relaxation of supercoiled pBR322 plasmid DNA at 20 uM measured after 1 hr by ethidium bromide staining based agarose gel electrophoresis relative to control
[5] = target: DNA topoisomerase 2-alpha (Homo sapiens) (UniProt P11388); experiment: Inhibition of human recombinant topoisomerase-2alpha assessed as inhibition of relaxation of supercoiled pBR322 plasmid DNA at 100 uM measured after 1 hr by ethidium bromide staining based agarose gel electrophoresis relative to control
HCT-15 = experiment: Antiproliferative activity against human HCT15 cells incubated for 72 hrs by CCK8 assay; assay type: functional, cell-based; details: HCT-15, 72 h
[6] = target: T1, DNA topoisomerase 1 (Homo sapiens); experiment: Inhibition of human recombinant topoisomerase-1 assessed as inhibition of relaxation of supercoiled pBR322 plasmid DNA at 20 uM measured after 1 hr by ethidium bromide staining based agarose gel electrophoresis relative to control

DNA topoisomerase 2-alpha (Homo sapiens), sequence (P11388 whole entry): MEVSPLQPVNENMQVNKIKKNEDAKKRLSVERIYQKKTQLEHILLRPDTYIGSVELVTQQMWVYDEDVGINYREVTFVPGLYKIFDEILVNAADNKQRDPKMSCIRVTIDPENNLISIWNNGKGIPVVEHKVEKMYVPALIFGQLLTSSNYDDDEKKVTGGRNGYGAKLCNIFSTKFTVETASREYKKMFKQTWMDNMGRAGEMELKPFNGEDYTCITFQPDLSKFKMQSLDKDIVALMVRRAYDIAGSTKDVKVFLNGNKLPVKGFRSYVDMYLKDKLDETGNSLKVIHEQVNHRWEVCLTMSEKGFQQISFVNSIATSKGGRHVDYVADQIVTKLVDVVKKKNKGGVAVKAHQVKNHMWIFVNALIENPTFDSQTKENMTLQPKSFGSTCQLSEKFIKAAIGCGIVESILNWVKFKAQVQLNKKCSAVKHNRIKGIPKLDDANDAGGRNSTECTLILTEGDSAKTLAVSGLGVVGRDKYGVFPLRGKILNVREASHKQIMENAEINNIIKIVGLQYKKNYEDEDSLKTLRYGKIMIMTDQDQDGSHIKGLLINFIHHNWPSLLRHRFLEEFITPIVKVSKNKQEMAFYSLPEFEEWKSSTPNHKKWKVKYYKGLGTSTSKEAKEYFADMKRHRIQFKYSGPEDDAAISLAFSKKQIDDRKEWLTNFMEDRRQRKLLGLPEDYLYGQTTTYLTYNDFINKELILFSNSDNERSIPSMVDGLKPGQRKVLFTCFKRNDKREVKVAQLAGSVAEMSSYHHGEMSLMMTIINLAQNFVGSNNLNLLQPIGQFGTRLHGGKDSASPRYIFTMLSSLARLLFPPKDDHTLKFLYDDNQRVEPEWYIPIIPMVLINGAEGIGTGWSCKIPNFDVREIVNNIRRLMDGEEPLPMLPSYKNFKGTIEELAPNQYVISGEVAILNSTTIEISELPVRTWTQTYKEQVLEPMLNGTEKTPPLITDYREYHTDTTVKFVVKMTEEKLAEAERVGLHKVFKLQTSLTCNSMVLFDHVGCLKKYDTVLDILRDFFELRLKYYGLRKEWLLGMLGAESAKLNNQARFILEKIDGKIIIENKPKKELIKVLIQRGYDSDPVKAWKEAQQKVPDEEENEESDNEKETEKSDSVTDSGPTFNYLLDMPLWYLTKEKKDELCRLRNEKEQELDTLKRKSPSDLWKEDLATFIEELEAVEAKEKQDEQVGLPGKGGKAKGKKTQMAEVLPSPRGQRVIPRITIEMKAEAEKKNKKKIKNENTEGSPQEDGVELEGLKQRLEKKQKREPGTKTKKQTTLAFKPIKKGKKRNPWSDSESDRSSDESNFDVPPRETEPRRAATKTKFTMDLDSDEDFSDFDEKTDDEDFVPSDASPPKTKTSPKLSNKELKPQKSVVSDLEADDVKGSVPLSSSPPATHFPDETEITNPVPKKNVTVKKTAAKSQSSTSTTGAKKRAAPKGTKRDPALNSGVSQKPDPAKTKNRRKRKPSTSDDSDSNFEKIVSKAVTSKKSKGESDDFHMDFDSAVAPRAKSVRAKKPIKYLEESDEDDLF

SMILES | pIC50 (HeLa) | Ratio [1] | pIC50 (T47D) | Ratio [2] | inhibition [3] | inhibition [4] | inhibition [5] | pIC50 (HCT-15) | inhibition [6] | inhibition [2]
Oc1cccc(-c2cc(-c3ccccc3)c3oc4cc(O)ccc4c3n2)c1 | < 4.30 | 0.82 | 5.55 | 0.6 | 15.9% | 32.5% | 46.3% | < 4.30 |  | 
Oc1cccc(-c2cc(-c3ccccc3)nc3c2oc2cc(O)ccc23)c1 | 5.49 | 0.84 | 6.47 | 1.58 | 27.4% | 41.9% | 98% | 5.39 |  | 
Oc1ccc2c(c1)oc1c(-c3ccccc3O)cc(-c3ccccc3)nc12 | 5.16 | 0.48 | 6.13 | 0.69 | 14.2% | 19.1% | 52.5% | 5.24 |  | 
COc1cccc2c1C(=O)c1c(O)c3c(c(O)c1C2=O)C[C@@](O)(C(=O)CO)C[C@@H]3O[C@H]1C[C@H](N)[C@H](O)[C@H](C)O1 [DOXORUBICIN HYDROCHLORIDE] | 5.82 |  |  |  |  |  |  | 6.29 |  | 
Oc1ccc2c(c1)oc1c(-c3ccccc3O)cc(-c3ccccc3O)nc12 | < 4.30 | 0.96 | 5.99 | 0.6 | 30.1% | 38% | 46% | < 4.30 | 0% | 
Oc1ccc(-c2cc(-c3ccccc3)nc3c2oc2cc(O)ccc23)cc1 | < 4.30 |  | < 4.30 |  | 30.3% |  | 0.4% | < 4.30 | 0% | inactive
Oc1ccc(-c2cc(-c3ccccc3O)nc3c2oc2cc(O)ccc23)cc1 | 5.44 | 1.42 | 5.71 | 1.62 | 39.9% | 70.8% | 100% | 5.03 | 0% | 
Oc1ccc(-c2cc(-c3cccc(O)c3)c3oc4cc(O)ccc4c3n2)cc1 | 5.67 | 1.11 | 6.72 | 1.07 | 66.3% | 55.1% | 66.1% | 5.43 | 38.1% | 
Oc1ccc2c(c1)oc1c(-c3ccccc3)cc(-c3ccccc3O)nc12 | 5.39 | 1.33 | 6.15 | 1.08 | 18.2% | 52.6% | 83.1% | 5.80 |  | 
Oc1ccc(-c2cc(-c3ccc(O)cc3)c3oc4cc(O)ccc4c3n2)cc1 | 5.48 | 1.33 | 6.77 | 1.15 | 33.8% | 65.9% | 71% | 5.38 | 18.6% | 
Oc1cccc(-c2cc(-c3cccc(O)c3)c3oc4cc(O)ccc4c3n2)c1 | 6.07 | 1.49 | 6.23 | 1.62 | 22.4% | 74.1% | 100% | 5.91 |  | 
Oc1ccc(-c2cc(-c3ccccc3)c3oc4cc(O)ccc4c3n2)cc1 | < 4.30 | 1.83 | 5.28 | 1.02 | 43.9% | 72.2% | 78.4% | < 4.30 | 0% | 
Oc1ccc(-c2cc(-c3cccc(O)c3)nc3c2oc2cc(O)ccc23)cc1 | 4.54 | 0.91 | 5.28 | 0.94 | 71.7% | 45.1% | 58.4% | 4.62 | 60.9% | 
Oc1cccc(-c2cc(-c3ccccc3O)c3oc4cc(O)ccc4c3n2)c1 | 5.44 | 0.31 | 6.19 | 0.82 | 33.9% | 12% | 63% | 5.60 | 0% | 
Oc1ccc(-c2cc(-c3ccccc3O)c3oc4cc(O)ccc4c3n2)cc1 | 5.54 | 0.73 | 6.21 | 1.12 | 3.3% | 29% | 87.3% | 5.90 |  | 
Oc1cccc(-c2cc(-c3ccccc3O)nc3c2oc2cc(O)ccc23)c1 | 5.47 | 1.53 | 5.90 | 1.6 | 25.6% | 76% | 99.1% | 5.16 |  | 
Oc1ccc2c(c1)oc1c(-c3ccccc3)cc(-c3ccccc3)nc12 | < 4.30 |  | < 4.30 |  | 30.8% |  | 18.3% | < 4.30 | 0% | 
